Consider 20 compounds from patent US9409884B2 (Rigel Pharmaceuticals, Inc., priority 2012, dated 2016).

Some results are limits rather than exact numbers.

The experiment has as its target AMPK. Put plainly: AMPK activation, enzyme-linked immunosorbent assay. The format is biochemical. The settings on record: Table 9, compounds of Table 2. Put shortly:
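AMPK activation by test compounds was measured by enzyme-linked immunosorbent assay.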
In general, EC50 refers to the concentration needed to bring the measured effect to its halfway point. The low end stands for greater potency, the high end for weaker potency. Consider `O=C(NC1CCN(S(=O)(=O)c2cccnc2)CC1)c1ccc2[nH]c3c(c2c1)CN(Cc1ccc(C(F)(F)F)cc1)CC3` [Compound 2-22, N-(1-(pyridin-3-ylsulfonyl)piperidin-4-yl)-2-(4-(trifluoromethyl)benzyl)-2,3,4,5-tetrahydro-1H-pyrido[4,3-b]indole-8-carboxamide], for which the EC50 lay in the range of 0.5 to 1 µM.

Regarding `O=C(NC1CCN(S(=O)(=O)c2ccc(C(F)(F)F)cc2)CC1)c1ccc2[nH]c3c(c2c1)CN(Cc1ccc(C(F)(F)F)cc1)CC3` [Compound 2-23, 2-(4-(trifluoromethyl)benzyl)-N-(1-(4-(trifluoromethyl)phenylsulfonyl)piperidin-4-yl)-2,3,4,5-tetrahydro-1H-pyrido[4,3-b]indole-8-carboxamide], the EC50 was 1 to 5 µM.

`N#Cc1ccc(CN2CCC(NC(=O)c3ccc4[nH]c5c(c4c3)CN(S(=O)(=O)c3ccc(C(F)(F)F)cc3)CC5)CC2)cc1` [Compound 2-24, N-(1-(4-cyanobenzyl)piperidin-4-yl)-2-(4-(trifluoromethyl)phenylsulfonyl)-2,3,4,5-tetrahydro-1H-pyrido[4,3-b]indole-8-carboxamide] had an EC50 of 1 to 5 µM.

`N#Cc1ccc(CN2CCC(NC(=O)c3ccc4[nH]c5c(c4c3)CN(S(=O)(=O)c3ccc(C#N)cc3)CC5)CC2)cc1` [Compound 2-25, N-(1-(4-cyanobenzyl)piperidin-4-yl)-2-(4-cyanophenylsulfonyl)-2,3,4,5-tetrahydro-1H-pyrido[4,3-b]indole-8-carboxamide] registered an EC50 of 10 to 50 µM.

The compound `N#Cc1ccc(CN2CCC(NC(=O)c3ccc4[nH]c5c(c4c3)CN(S(=O)(=O)c3cccnc3)CC5)CC2)cc1` [Compound 2-26, N-(1-(4-cyanobenzyl)piperidin-4-yl)-2-(pyridin-3-ylsulfonyl)-2,3,4,5-tetrahydro-1H-pyrido[4,3-b]indole-8-carboxamide] yielded an EC50 of 10 to 50 µM.

As to `N#Cc1ccc(NC(=O)N2CCC(NC(=O)c3ccc4[nH]c5c(c4c3)CN(Cc3ccc(C(F)(F)F)cc3)CC5)CC2)cc1` [Compound 2-27, N-(1-(4-cyanophenylcarbamoyl)piperidin-4-yl)-2-(4-(trifluoromethyl)benzyl)-2,3,4,5-tetrahydro-1H-pyrido[4,3-b]indole-8-carboxamide], the EC50 was 1 to 5 µM.

In turn, `O=C(NC1CCN(S(=O)(=O)c2ccc(F)cc2)CC1)c1ccc2[nH]c3c(c2c1)CN(Cc1ccc(C(F)(F)F)cc1)CC3` [Compound 2-28, N-(1-(4-fluorophenylsulfonyl)piperidin-4-yl)-2-(4-(trifluoromethyl)benzyl)-2,3,4,5-tetrahydro-1H-pyrido[4,3-b]indole-8-carboxamide] gave an EC50 of 1 to 5 µM.

`N#Cc1cccc(S(=O)(=O)N2CCC(NC(=O)c3ccc4[nH]c5c(c4c3)CN(Cc3ccc(C(F)(F)F)cc3)CC5)CC2)c1` [Compound 2-29, N-(1-(3-cyanophenylsulfonyl)piperidin-4-yl)-2-(4-(trifluoromethyl)benzyl)-2,3,4,5-tetrahydro-1H-pyrido[4,3-b]indole-8-carboxamide]: the EC50 lay in the range of 1 to 5 µM.

On to `O=C(NC1CCN(S(=O)(=O)c2cccc(C(F)(F)F)c2)CC1)c1ccc2[nH]c3c(c2c1)CN(Cc1ccc(C(F)(F)F)cc1)CC3` [Compound 2-30, 2-(4-(trifluoromethyl)benzyl)-N-(1-(3-(trifluoromethyl)phenylsulfonyl)piperidin-4-yl)-2,3,4,5-tetrahydro-1H-pyrido[4,3-b]indole-8-carboxamide], for which the EC50 was in the range of 1 to 5 µM.

`O=C(NC1CCN(S(=O)(=O)c2ccc(Cl)cc2)CC1)c1ccc2[nH]c3c(c2c1)CN(Cc1ccc(C(F)(F)F)cc1)CC3` [Compound 2-32, N-(1-(4-chlorophenylsulfonyl)piperidin-4-yl)-2-(4-(trifluoromethyl)benzyl)-2,3,4,5-tetrahydro-1H-pyrido[4,3-b]indole-8-carboxamide] registered an EC50 of 1 to 5 µM.

For `O=C(NC1CCN(C(=O)Nc2ccc(C(F)(F)F)cc2)CC1)c1ccc2[nH]c3c(c2c1)CN(Cc1ccc(C(F)(F)F)cc1)CC3` [Compound 2-33, 2-(4-(trifluoromethyl)benzyl)-N-(1-(4-(trifluoromethyl)phenylcarbamoyl)piperidin-4-yl)-2,3,4,5-tetrahydro-1H-pyrido[4,3-b]indole-8-carboxamide], the EC50 was 1 to 5 µM.

Regarding `O=C(NC1CCN(S(=O)(=O)c2ccc(F)cc2)CC1)c1ccc2[nH]c3c(c2c1)CN(c1ccc(F)cc1)CC3` [Compound 2-35, 2-(4-fluorophenyl)-N-(1-(4-fluorophenylsulfonyl)piperidin-4-yl)-2,3,4,5-tetrahydro-1H-pyrido[4,3-b]indole-8-carboxamide], the EC50 lay within 10 to 50 µM.

`O=C(NC1CCN(Cc2cccnc2)CC1)c1ccc2[nH]c3c(c2c1)CN(c1ccc(F)cc1)CC3` [Compound 2-36, 2-(4-fluorophenyl)-N-(1-(pyridin-3-ylmethyl)piperidin-4-yl)-2,3,4,5-tetrahydro-1H-pyrido[4,3-b]indole-8-carboxamide] yielded an EC50 greater than 100 µM.

The compound `O=C(NC1CCN(Cc2ccc(C(F)(F)F)cc2)CC1)c1ccc2[nH]c3c(c2c1)CN(c1ccc(F)cc1)CC3` [Compound 2-37, 2-(4-fluorophenyl)-N-(1-(4-(trifluoromethyl)benzyl)piperidin-4-yl)-2,3,4,5-tetrahydro-1H-pyrido[4,3-b]indole-8-carboxamide] yielded an EC50 of 5 to 10 µM.

The compound `CC(C)(C)OC(=O)N1CCC(NC(=O)c2ccc3[nH]c4c(c3c2)CN(c2ccc(F)cc2)CC4)CC1` [Compound 2-38, tert-butyl 4-(2-(4-fluorophenyl)-2,3,4,5-tetrahydro-1H-pyrido[4,3-b]indole-8-carboxamido)piperidine-1-carboxylate] had an EC50 of 10 to 50 µM.

As to `O=C(NC1CCN(C(=O)c2ccc(F)cc2)CC1)c1ccc2[nH]c3c(c2c1)CN(c1ccc(F)cc1)CC3` [Compound 2-39, N-(1-(4-fluorobenzoyl)piperidin-4-yl)-2-(4-fluorophenyl)-2,3,4,5-tetrahydro-1H-pyrido[4,3-b]indole-8-carboxamide], the EC50 was 10 to 50 µM.

`O=C(NC1CCN(C(=O)c2cccnc2)CC1)c1ccc2[nH]c3c(c2c1)CN(c1ccc(F)cc1)CC3` [Compound 2-40, 2-(4-fluorophenyl)-N-(1-nicotinoylpiperidin-4-yl)-2,3,4,5-tetrahydro-1H-pyrido[4,3-b]indole-8-carboxamide] came in with an EC50 greater than 100 µM.

Compound `O=C(NC1CCN(C(=O)c2ccc(C(F)(F)F)cc2)CC1)c1ccc2[nH]c3c(c2c1)CN(c1ccc(F)cc1)CC3` [Compound 2-41, 2-(4-fluorophenyl)-N-(1-(4-(trifluoromethyl)benzoyl)piperidin-4-yl)-2,3,4,5-tetrahydro-1H-pyrido[4,3-b]indole-8-carboxamide] gave an EC50 of 10 to 50 µM.

`CC(C)(C)OC(=O)N1CCC(NC(=O)c2ccc3[nH]c4c(c3c2)CN(Cc2ccc(C(N)=O)cc2)CC4)CC1` [Compound 2-43, tert-butyl 4-(2-(4-carbamoylbenzyl)-2,3,4,5-tetrahydro-1H-pyrido[4,3-b]indole-8-carboxamido)piperidine-1-carboxylate] gave an EC50 greater than 100 µM.

`N#Cc1ccc(CN2CCC(NC(=O)c3ccc4[nH]c5c(c4c3)CN(Cc3ccc(C(N)=O)cc3)CC5)CC2)cc1` [Compound 2-44, 2-(4-carbamoylbenzyl)-N-(1-(4-cyanobenzyl)piperidin-4-yl)-2,3,4,5-tetrahydro-1H-pyrido[4,3-b]indole-8-carboxamide] yielded an EC50 of 10 to 50 µM.
